Consider twelve compounds from patent US20260200964A1, “MONOSACCARIDES, PHARMACEUTICAL COMPOSITIONS, AND DIAGNOSTIC AND THERAPEUTIC APPLICATIONS” (Surio Therapeutics Co., LTD., priority 2022, published 2026).

Series [1] is described as follows: Compound stability in a biological matrix (mouse plasma). The series is classed as in vitro ADME. The conditions noted are these: 10 μg/mL, 37° C., LC-MS/MS. The procedure:
(§1) A compound was dissolved in DMSO as a 1 mg/mL stock solution. An ACN solution of the compound at 100 μg/mL was prepared from the stock solution, 10 μL of which was added to a biological matrix (90 μL) to the final concentration of 10 μg/mL for the compound. The mixtures of the compound in a biological matrix were incubated at 37° C. for 0, 0.5, 1, or 4 h. At each time point, ACN (900 μL) was added to a mixture. After the mixture was centrifuged at 15,000 rpm for 5 min, the supernatant was mixed with the same volume of H2O (1% TFA) and then analyzed by LC-MS/MS. The results are summarized in Table 3, wherein Cbz-AAM is (2R,3S,4R,5S)-6-((4-((S)-6-acetamido-2-(((benzyloxy)carbonyl)amino)hexan-amido)phenyl)(phenyl)methoxy)-2-(acetoxymethyl)-5-(2-azidoacetamido)tetrahydro-2H-pyran-3,4-diyl diacetate.

Series [2] relates to A549 cells. As to the kind of experiment: Flow cytometry analysis of cell labeling (azido labeling efficiency). Type of series: cell-based. The conditions noted are these: Homo sapiens; A549 cells (lung); azido compound 25 μM, 48 h; mean fluorescence of live cells compared with PBS negative control. Here is the method:
Cells (2.0×10^6 cells/mL, 2 mL) were seeded in a 6-well culture plate and attached at 37° C. overnight. After washed thrice with PBS, the cells were incubated with an azido compound (25 μM) at 37° C. for 48 h. After washed thrice with PBS, the cells were incubated with DBCO-biotin (50 μM) in 500 μL serum free DMEM at 37° C. for 1 h. The cells were washed thrice with PBS and then incubated with streptavidin-Cy5 (5 μg/mL) in 500 μL serum free DMEM at 37° C. for 1 h. The cells were washed thrice with PBS, followed by addition of 300 μL 1×trypsin/EDTA for digestion. The lifted cells were transferred to a 1.5 mL EP tube, centrifuge at 1,000 rpm for 3 min, and washed with PBS once. Finally, 500 μL PBS containing 4% PFA was added to the cell pellet to fix the cells. The cell suspension was transferred to a flow tube and mixed with 10 μL of a PI working solution (50 μg/mL) at room temperature for 30 min before being subjected to flow cytometry.
Flow cytometry was used to characterize the labeling efficiency of a compound provided herein. After cells were labeled with an azido group, DBCO-biotin was added to specifically react with the azido group. Avidin-Cy5 was added bind to the cell surface biotin for a flow cytometry analysis. Dead cells were stained with PI and excluded from the analysis. Results were presented as the mean fluorescence of live cells, compared with PBS as a negative control and Ac4ManNAz (AAM) as a positive control, Ac4ManNAz (AAM, CAS: 361154-30-5).

A short description of series [3]: Compound stability in a biological matrix (human plasma). Type of series: in vitro ADME. The note with it: 10 μg/mL, 37° C., LC-MS/MS. The procedure:
as §1

On to `CC(=O)NCCCC[C@H](NC(=O)OCc1ccccc1)C(=O)Nc1ccc(C(OC2OC(COC(=O)CN3CCCC3)C(OC(C)=O)C(OC(C)=O)C2NC(=O)CN=[N+]=[N-])c2ccnn2C)cc1` (stereo partly drawn) [Compound A11, 1-O-(1-(2-Methylpyrazol-3-yl)-1-(4-(6-acetamido-2(S)-(benzyloxycarbonyl-amino)hexanamido)phenyl)methyl)-2-(2-azidoacetylamino)-2-deoxy-3,4-di-O-acetyl-6-O-(pyrrolin-1-ylacetyl)-D-mannopyranoside], for which, in series [1], the “Compound Remaining (%) Mouse 1 h” value worked out at 38% and the “Compound Remaining (%) Mouse 4 h” value turned out to be 3%.

`CC(=O)NCCCC[C@H](NC(C)=O)C(=O)Nc1ccc(C(OC2OC(COC(=O)C3CCN(C)CC3)C(OC(C)=O)C(OC(C)=O)C2NC(=O)CN=[N+]=[N-])c2ccnn2C)cc1` (stereo partly drawn) [Compound A18, 1-O-(1-(2-Methylpyrazol-3-yl)-1-(4-(2(S),6-diacetamidohexanamido)phenyl)-methyl)-2-(2-azidoacetylamino)-2-deoxy-3,4-di-O-acetyl-6-O-(1-methylpiperidin-4-ylcarbonyl)-D-mannopyranoside]: in series [1], the “Compound Remaining (%) Mouse 1 h” value was 100% and the “Compound Remaining (%) Mouse 4 h” value stood at 93%. The activity at 25 µM in series [2] was 104%. In series [3], the “Compound Remaining (%) Human 1 h” value was 95% and the “Compound Remaining (%) Human 4 h” value is listed as 85%.

On to `CC(=O)NCCCC[C@H](NC(=O)OCc1ccccc1)C(=O)Nc1ccc(C(OC2OC(COC(C)=O)C(OC(C)=O)C(OC(C)=O)C2NC(=O)CN=[N+]=[N-])c2cccs2)cc1` (stereo partly drawn) [Compound A4, 1-O-(1-(thien-2-yl)-1-(4-(6-acetamido-2(S)-(benzyloxycarbonylamino)-hexanamido)phenyl)methyl)-2-(2-azidoacetylamino)-2-deoxy-3,4,6-tri-O-acetyl-D-mannopyranoside], for which, in series [1], the “Compound Remaining (%) Mouse 1 h” value came out at 3% and the “Compound Remaining (%) Mouse 4 h” value is given as 3%. Moreover, the activity at 25 µM in series [2] came out at 83%. Also, in series [3], the “Compound Remaining (%) Human 1 h” value is reported as 2% and the “Compound Remaining (%) Human 4 h” value is listed as 1%.

With `CC(=O)NCCCC[C@H](NC(C)=O)C(=O)Nc1ccc(C(OC2OC(COC(C)=O)C(OC(C)=O)C(OC(C)=O)C2NC(=O)CN=[N+]=[N-])c2nccs2)cc1` (stereo partly drawn) [Compound A15, 1-O-(1-(Thiazol-2-yl)-1-(4-(2(S),6-diacetamidohexanamido)phenyl)methyl)-2-(2-azidoacetylamino)-2-deoxy-3,4,6-tri-O-acetyl-D-mannopyranoside], in series [1], the “Compound Remaining (%) Mouse 1 h” value is reported as 2% and the “Compound Remaining (%) Mouse 4 h” value is below 2%. Further, the activity at 25 µM in series [2] turned out to be 318%. Besides, in series [3], the “Compound Remaining (%) Human 1 h” value is listed as 2% and the “Compound Remaining (%) Human 4 h” value was below 2%.

Turning to `CC(=O)NCCCC[C@H](NC(=O)OCc1ccccc1)C(=O)Nc1ccc(C(OC2OC(COC(=O)C3CCOCC3)C(OC(C)=O)C(OC(C)=O)C2NC(=O)CN=[N+]=[N-])c2ccnn2C)cc1` (stereo partly drawn) [Compound A9, 1-O-(1-(2-methylpyrazol-3-yl)-1-(4-(6-acetamido-2(S)-(benzyloxycarbonyl-amino)hexanamido)phenyl)methyl)-2-(2-azidoacetylamino)-2-deoxy-3,4-di-O-acetyl-6-O-tetrahydropyran-4-ylcarbonyl-D-mannopyranoside], in series [1], the “Compound Remaining (%) Mouse 1 h” value was 84% and the “Compound Remaining (%) Mouse 4 h” value amounted to 27%. Besides, the activity at 25 µM in series [2] was found to be 197%. In addition, in series [3], the “Compound Remaining (%) Human 1 h” value was 63% and the “Compound Remaining (%) Human 4 h” value came to 16%.

`CC(=O)NCCCC[C@H](NC(=O)OCc1ccccc1)C(=O)Nc1ccc(C(OC2OC(COC(=O)c3cccnc3)C(OC(C)=O)C(OC(C)=O)C2NC(=O)CN=[N+]=[N-])c2ccnn2C)cc1` (stereo partly drawn) [Compound A13, 1-O-(1-(2-Methylpyrazol-3-yl)-1-(4-(6-acetamido-2(S)-(benzyloxycarbonyl-amino)hexanamido)phenyl)methyl)-2-(2-azidoacetylamino)-2-deoxy-3,4-di-O-acetyl-6-O-(pyridin-3-ylcarbonyl)-D-mannopyranoside]: in series [1], the “Compound Remaining (%) Mouse 1 h” value is listed as 76% and the “Compound Remaining (%) Mouse 4 h” value is given as 22%. In addition, the activity at 25 µM in series [2] was 180%. Moreover, in series [3], the “Compound Remaining (%) Human 1 h” value is recorded as 50% and the “Compound Remaining (%) Human 4 h” value was found to be 12%.

Consider `CC(=O)NCCCC[C@H](NC(C)=O)C(=O)Nc1ccc(C(OC2OC(COC(C)=O)C(OC(C)=O)C(OC(C)=O)C2NC(=O)CN=[N+]=[N-])c2ccnn2C)cc1` (stereo partly drawn) [Compound A14, 1-O-(1-(2-Methylpyrazol-3-yl)-1-(4-(2(S),6-diacetamidohexanamido)phenyl)-methyl)-2-(2-azidoacetylamino)-2-deoxy-3,4,6-tri-O-acetyl-D-mannopyranoside], for which, in series [1], the “Compound Remaining (%) Mouse 1 h” value is 89% and the “Compound Remaining (%) Mouse 4 h” value is reported as 40%. For the same compound, in series [2], the activity at 25 µM was 620%. Moreover, in series [3], the “Compound Remaining (%) Human 1 h” value is given as 63% and the “Compound Remaining (%) Human 4 h” value worked out at 19%.

With `CC(=O)NCCCC[C@H](NC(=O)OCc1ccccc1)C(=O)Nc1ccc(C(OC2OC(COC(C)=O)C(OC(C)=O)C(OC(C)=O)C2NC(=O)CN=[N+]=[N-])c2ccsc2)cc1` (stereo partly drawn) [Compound A5, 1-O-(1-(Thien-3-yl)-1-(4-(6-acetamido-2(S)-(benzyloxycarbonylamino)hexan-amido)phenyl)methyl)-2-(2-azidoacetylamino)-2-deoxy-3,4,6-tri-O-acetyl-D-mannopyranoside], in series [1], the “Compound Remaining (%) Mouse 1 h” value turned out to be 2% and the “Compound Remaining (%) Mouse 4 h” value is 2%. Moreover, in series [2], the activity at 25 µM was determined as 130%. Moreover, in series [3], the “Compound Remaining (%) Human 1 h” value is on record as 2% and the “Compound Remaining (%) Human 4 h” value came to 1%.

Regarding `CC(=O)NCCCC[C@H](NC(=O)OCc1ccccc1)C(=O)Nc1ccc(C(OC2OC(COC(C)=O)C(OC(C)=O)C(OC(C)=O)C2NC(=O)CN=[N+]=[N-])c2ccncc2)cc1` (stereo partly drawn) [Compound A7, 1-O-(1-(Pyridin-4-yl)-1-(4-(6-acetamido-2(S)-(benzyloxycarbonylamino)hexan-amido)phenyl)methyl)-2-(2-azidoacetylamino)-2-deoxy-3,4,6-tri-O-acetyl-D-mannopyranoside], in series [1], the “Compound Remaining (%) Mouse 1 h” value is reported as 29% and the “Compound Remaining (%) Mouse 4 h” value is 6%. For the same compound, in series [3], the “Compound Remaining (%) Human 1 h” value is on record as 41% and the “Compound Remaining (%) Human 4 h” value was 4%.

With `CC(=O)NCCCC[C@H](NC(=O)OCc1ccccc1)C(=O)Nc1ccc(C(OC2OC(COC(C)=O)C(OC(C)=O)C(OC(C)=O)C2NC(=O)CN=[N+]=[N-])c2cncs2)cc1` (stereo partly drawn) [Compound A3, 1-O-(1-(thiazol-5-yl)-1-(4-(6-acetamido-2(S)-(benzyloxycarbonylamino)-hexanamido)phenyl)methyl)-2-(2-azidoacetylamino)-2-deoxy-3,4,6-tri-O-acetyl-D-mannopyranoside], in series [1], the “Compound Remaining (%) Mouse 1 h” value turned out to be 72% and the “Compound Remaining (%) Mouse 4 h” value is on record as 19%.

Turning to `CC(=O)NCCCC[C@H](NC(=O)OCc1ccccc1)C(=O)Nc1ccc(C(OC2OC(COC(C)=O)C(OC(C)=O)C(OC(C)=O)C2NC(=O)CN=[N+]=[N-])c2cccnc2)cc1` (some centres unmarked) [Compound A6], in series [1], the “Compound Remaining (%) Mouse 1 h” value is recorded as 4% and the “Compound Remaining (%) Mouse 4 h” value is 0.6%. Also, in series [3], the “Compound Remaining (%) Human 1 h” value is recorded as 88% and the “Compound Remaining (%) Human 4 h” value was 65%.

With `CC(=O)NCCCC[C@H](NC(=O)OCc1ccccc1)C(=O)Nc1ccc(C(OC2O[C@H](COC(C)=O)[C@@H](OC(C)=O)[C@H](OC(C)=O)[C@@H]2NC(=O)CN=[N+]=[N-])c2ccccc2)cc1` (stereo partly drawn) [Cbz-AAM, (2R,3S,4R,5S)-6-((4-((S)-6-acetamido-2-(((benzyloxy)carbonyl)amino)hexan-amido)phenyl)(phenyl)methoxy)-2-(acetoxymethyl)-5-(2-azidoacetamido)tetrahydro-2H-pyran-3,4-diyl diacetate, reference compound], the “Compound Remaining (%) Mouse 1 h” value in series [1] amounted to 16%. Besides, in series [3], the “Compound Remaining (%) Human 1 h” value was 100% and the “Compound Remaining (%) Human 4 h” value was 100%.
